Measurements published in patent US20250170212A1, “COMPOSITIONS AND METHODS OF TREATING AMYOTROPHIC LATERAL SCLEROSIS (ALS) AND RELATED DISORDERS” (BIOINCEPT, LLC, priority 2022, published 2025).
Entries after “also recorded” stand apart in the source; their conditions may differ.

What was measured:
[1] = system: transgenic SOD1^G93A mice; experiment: Hanging wire test (neuromuscular strength and coordination); assay type: in vivo, mouse; details: weekly from day 0, drug groups with mGRPs
Procedure: To assess the motor capacity of our treatment groups, motor skills assays were performed. Starting at day −7 SOD1^G93A mice (n=30) were trained in hanging wire. Animals were trained 3 times a week in 2 days interval. Weekly measurements were performed starting at day 0 until the end of the experiment. Hanging wire test was used to test neuromuscular strength and coordination. Briefly, mice were hung on a wire and had to catch the wire both by upper and lower limbs as well as tangle it with tail in order to move the whole distance towards a stick (repeated three times for each mouse and obtaining an average). Maximum points (1.5 point) were given when mice performed the task. […] A poor score (<0.66 points) was given when a mouse was unable to move the whole distance and the amount of time for which mice were able to hang on the wire (1 sec=0.016 points) was counted. […]
All quantifications were performed including the manual cell counts in a blinded manner. The NeuN and Ibal were counted as positive cells in the ROI (see above) as previously reported. The number of cells was determined by unbiased counting of positive cells. […] Differences between groups were analyzed using a repeated measure ANOVA model with a fixed effect for the group, of the time and a random intercept for the mouse. […] The statistical significance at p<0.05 was then determined.

[2] = system: NeuN positive cells (mature neurons); experiment: Immunohistochemistry of mature neurons in brainstem motor nuclei; assay type: in vivo, mouse; details: facial and hypoglossal motor nuclei; compared to Injury
Procedure: At the end of experiment, mice were subjected to full body perfusion with 20% sucrose and 10% buffered formalin suitable for histology assays (Sigma Aldrich, St.Louis, MO, USA). Mice were decapitated and incubated in formalin for 24 h. Following the tissues (brain and spinal cord) were isolated, paraffin fixed for further analyses. After brain removal, the tissue was fixed in a formaldehyde solution (4%) for 2-4 hours at RT followed by 4° C. for a total time of 24-48 hours. Fixed tissues were embedded in paraffin and finally sectioned into 7 μm slices. […]
Assessment of neuronal and microglial positive cells were performed in the region of interest (ROI). […] The images were analyzed and reconstructed using Image J (US National Institutes of Health).
All quantifications were performed including the manual cell counts in a blinded manner. The NeuN and Ibal were counted as positive cells in the ROI (see above) as previously reported. The number of cells was determined by unbiased counting of positive cells. […] Differences between groups were analyzed using a repeated measure ANOVA model with a fixed effect for the group, of the time and a random intercept for the mouse. In a second, more explorative, approach for each group the time when the physical activity was first measured below a certain threshold was determined. […]

MVRIKPGSANKPSDD [sPIF]
motor performance in hanging wire test (early motor impairment) [1]: significant delay of early motor impairment; also recorded: significant improvement of motor outcome | number of mature neurons (NeuN positive cells) [2]: significant protection of neuronal cells
